In patent US9133230B2, “Hydrazone derivatives having potent antitumor activity toward multi-drug resistant tumor cells” (THE UNITED STATES OF AMERICA AS REPRESENTED BY THE …, priority 2011, dated 2015):
Where two headings read alike, the source gives them in different places.

Experiments:
melanoma cell lines = assay: NCI 60 human tumor cell line screen, melanoma; assay type: cell-based; settings: arithmetic mean of two to nine cancer cell lines, read-out: Inhibitory concentration GI50, melanoma
Excerpt: (§1) Selected compounds were submitted for testing in the organ-specific panel of human tumor cell lines at the National Cancer Institute, Bethesda, Md. This screen utilized 60 human tumor cell lines, representing leukemia, melanoma, and cancers of the lung, colon, brain, ovary, kidney, prostate, and breast (Boyd, M. R., “Status of the NCl preclinical antitumor drug discovery screen”. In Principles and practice of oncology updates; De Vita, V. T., Jr. Hellman, S., Rosenberg, S. A., Eds.; Lippincott: Philadelphia, Pa., 1989; Vol. 3, pp 1-12).
(§2) The MG MID value is the average of the GI50 values for all the cell lines tested for drug concentrations in the range of 10^−4-10^−8 M (See website domain: dtp.nci.nih.gov/dtp).

[1] = test system: 60 human tumor cell lines; assay: NCI 60 human tumor cell line screen, all cell lines; assay type: cell-based; settings: for cells found to be the most sensitive: NCI screen, by cancer type; for mean GI50 (MG-MID): average of the GI50 values for all the cell lines tested, drug concentrations 10^−4-10^−8 M, read-out: MG-MID (mean graph midpoint)
Excerpt: as §1, §2

[2] = test system: human myelogenous leukemia K562; assay: MTS cytotoxicity assay, K562; assay type: cell-based
Method: (§3) In order to obtain information about the growth-inhibiting action of hydrazones reported in the present invention on tumor cells, growth inhibition was assessed for the following human tumor cell lines: human myelogenous leukemia K562, human cervical adenocarcinoma HeLa, human colon adenocarcinoma Caco-2, human colon carcinoma HT-29, human colon carcinoma HCT-15, and human breast carcinoma MCF-7.
(§4) The K562, HeLa, HT-29, HCT-15, Caco-2, and MCF-7 cell lines were obtained from the American type Culture Collection (ATCC, Manassas, Va.). K562 cells were maintained in RPMI 1640 medium (Gibco/Life Technologies, Gaithersburg, Md.) containing 10% heat-inactivated fetal bovine serum (FBS) (Atlanta Biologicals, Atlanta, Ga.) and 10000 U/L penicillin and 50 mg/L streptomycin. HeLa, HT-29, HCT-15, Caco-2 and MCF-7 cells were maintained in MEM with Earl's balanced salts, 10% FBS, penicillin, and streptomycin as above. Logarithmically growing HT-29, Caco-2, and MCF-7 cells were incubated with 0.05% trypsin containing 1 mM EDTA at 37° C. for about 5 min until cells were nonadherent and formed a single cell suspension. Trypsin activity was neutralized by adding 20-fold excess of the serum-containing medium. Cells were cultured at 37° C. in an atmosphere of air and 5% CO2.
(§5) Cytotoxicity assays were conducted by tetrazolium reduction of 3-(4,5-dimethylthiazol-2-yl)-5-(3-carboxymethoxyphenyl)-2-(4-sulfophenyl)-2H-tetrazolium (MTS) with N-methylphenazonium methyl sulfate (PMS) (CellTiter Assay, Promega, Madison, Wis.). Logarithmically growing cells were plated in 0.1 mL aliquots in 96-well microtiter plates. Cells were plated at an initial density of about 5000 cells/mL and allowed to acclimatize for 24 h. Cell suspensions were treated with various dilutions of compounds in triplicate, mixed well, and allowed to incubate for 48 h at 37° C. in an atmosphere of air and 5% CO2. To the cell suspension was added 20 μL of tetrazolium reagent, the mixture was incubated for 2 h at 37° C. in an atmosphere of air and 5% CO2, and absorbance at 490 nm was read by microplate reader. Control plates with serial dilutions of cell types were counted as a control for the assay. In all cases, controls indicated a linear response versus cell number, R^2≧0.99.

renal cancer cell lines = assay: NCI 60 human tumor cell line screen, renal; assay type: cell-based; settings: arithmetic mean of two to nine cancer cell lines, read-out: Inhibitory concentration GI50, renal
Excerpt: as §1, §2

breast cancer cell lines = assay: NCI 60 human tumor cell line screen, breast; assay type: cell-based; settings: arithmetic mean of two to nine cancer cell lines, read-out: Inhibitory concentration GI50, breast
Excerpt: as §1, §2

HL60 = assay: MTS cytotoxicity on MDR tumor cells, HL60; assay type: cell-based; settings: 72 hr incubation
[3] = test system: human breast carcinoma MCF-7; assay: MTS cytotoxicity assay, MCF-7; assay type: cell-based
Method: as §3, §4, §5

colon cancer cell lines = assay: NCI 60 human tumor cell line screen, colon; assay type: cell-based; settings: arithmetic mean of two to nine cancer cell lines, read-out: Inhibitory concentration GI50, colon
Excerpt: as §1, §2

[4] = test system: prostate cancer cell lines; assay: NCI 60 human tumor cell line screen, prostate; assay type: cell-based; settings: arithmetic mean of two to nine cancer cell lines, read-out: Inhibitory concentration GI50, prostrate
Excerpt: as §1, §2

leukemia cell lines = assay: NCI 60 human tumor cell line screen, leukemia; assay type: cell-based; settings: arithmetic mean of two to nine cancer cell lines, read-out: Inhibitory concentration GI50, leukemia
Excerpt: as §1, §2

[5] = test system: nonsmall cell lung cancer cell lines; assay: NCI 60 human tumor cell line screen, NSCL; assay type: cell-based; settings: arithmetic mean of two to nine cancer cell lines, read-out: Inhibitory concentration GI50, NSCL
Excerpt: as §1, §2

[6] = test system: human colon carcinoma HT-29; assay: MTS cytotoxicity assay, HT-29; assay type: cell-based
Method: as §3, §4, §5

[7] = test system: human colorectal carcinoma HT29; assay: Western blot of signal transduction pathways in HT29 cells; assay type: cell-based; settings: HT29, IC50 dose
[8] = test system: human colorectal carcinoma HT29; assay: as above; assay type: cell-based; settings: HT29, IC50 dose; remark: listed apart in the source
Method: The newly synthesized hydrazones RPC038, RPC042, and RPC046 had shown anti-tumor activity against 60 human cancer cell lines panel of the National Cancer Institute and on multi-drug resistant cell lines. The present studies were conducted to evaluate their action on signal transduction pathways in human colorectal carcinoma HT29. All the three compounds were examined at their IC50 doses.
Human colorectal carcinoma HT29 cells were obtained from the National Cancer Institute, Bethesda, Md., USA, and maintained in 5% CO2 at 37° C. in minimum essential media (Life Technologies, Inc., Grand Island, N.Y., USA) supplemented with 1% penicillin, streptomycin (Invitrogen, Carlsbad, Calif., USA), and 10% fetal bovine serum for optimal growth. HT29 cells (1×10^6) were plated in […], and 24 h later, fresh media was added and treated with the RPC038, RPC042 and RPC046 for indicated time points (2, 4, 8, 16 and 24 h). The cells were then washed with cold phosphate buffered saline (PBS) and taken in 1 ml PBS on ice and centrifuged at 4° C. The pellet was resuspended in appropriate volumes of radio immunoprecipitation assay buffer with protease inhibitor, kept on ice for 45 min and subsequently centrifuged at 4° C. An aliquot of supernatant (protein extract) was used to estimate the protein concentration. An aliquot of protein extract (40 μg) was subjected to Western blot analysis on a 12% polyacrylamide gel and transferred to nitrocellulose membrane. Blots were blocked, incubated with primary anti-pMEK, pERK, pJNK, pcjun, ERK, JNK, Cjun, Caspase-8, Caspase-6, PARP cleavage, or GAPDH antibodies (Cell Signaling Technology, Danvers, Mass.) and then conjugated with a secondary anti-mouse or an anti-rabbit horseradish […] antibody, and detected by ChemiDoc™ XRS+ System with Image Lab™ Software.

HL60-VCR [9] = assay: MTS cytotoxicity on MDR tumor cells, HL60-VCR; assay type: cell-based; settings: Vincristine (VCR) resistant, 72 hr incubation
CNS cancer cell lines = assay: NCI 60 human tumor cell line screen, CNS; assay type: cell-based; settings: arithmetic mean of two to nine cancer cell lines, read-out: Inhibitory concentration GI50, CNS
Excerpt: as §1, §2

[10] = test system: ovarian cancer cell lines; assay: NCI 60 human tumor cell line screen, ovarian; assay type: cell-based; settings: arithmetic mean of two to nine cancer cell lines, read-out: Inhibitory concentration GI50, ovarian
Excerpt: as §1, §2

[11] = test system: human colon carcinoma HCT-15; assay: MTS cytotoxicity assay, HCT-15; assay type: cell-based
Method: as §3, §4, §5

[12] = test system: human colon adenocarcinoma Caco-2; assay: MTS cytotoxicity assay, Caco-2; assay type: cell-based
Method: as §3, §4, §5

[13] = test system: human cervical adenocarcinoma HeLa; assay: MTS cytotoxicity assay, HeLa; assay type: cell-based; settings: 48 h incubation
Method: as §3, §4, §5

[14] = test system: human colorectal carcinoma HT29; assay: Annexin-V FACS analysis of apoptosis; assay type: cell-based; settings: FIGS. 3 and 4, treated versus control cells
Method: This activation was through ERK signaling and not through JNK signaling, resulting in PARP cleavage after 16 h. […] Activation of NFkB (p50) was also observed following treatment with these compounds.

HL60-VCR [15] = settings: MDR cell line characterisation; cited from earlier work
KB-A1000 = settings: MDR cell line characterisation; cited from earlier work

In the case of OC[C@H]1OC(n2cnc3c(NN=Cc4ccccn4)ncnc32)[C@H](O)[C@@H]1O (stereo partly shown) [I-9], the GI50 (melanoma cell lines) is reported as 347 nM, the “cells found to be the most sensitive” value [1] is reported as “leukemia, prostate, ovarian, and renal cancer cell lines” and the mean GI50 (MG-MID) [1] is reported as 228 nM. For the same compound, the GI50 ([2]; 48 h incubation) was 1500 nM, the GI50 (renal cancer cell lines) was 219 nM and the GI50 (breast cancer cell lines) was 250 nM. The GI50 (HL60; Vincristine (VCR) sensitive) was 1000 nM, the GI50 ([3]; 48 h incubation) was 2000 nM and the GI50 (colon cancer cell lines) was 251 nM. It also gave a GI50 [4] of 137 nM, a GI50 (leukemia cell lines) of 116 nM and a GI50 [5] of 269 nM. For the same compound, the GI50 ([6]; 48 h incubation) was 2000 nM, the “Activation of NFkB (p50)” value [7] was “observed” and the “phosphorylation of ERK (time)” value ([8]; Western blot pERK) was 4 h. For the same compound, the “phosphorylation of JNK” value ([8]; Western blot pJNK (results not shown)) was “without phosphorylation of JNK”, the “MEK activation (time)” value ([8]; Western blot pMEK) was 2 h and the “activation of cjun (time)” value ([8]; Western blot pcjun) was 6 h. The Caspase activation ([8]; initial studies) was “Caspase-3 activation through Caspase-6 and not through Caspase-8”, the GI50 (HL60-VCR [9]) was 1500 nM and the GI50 (CNS cancer cell lines) was 271 nM. The GI50 [10] was 196 nM, the GI50 ([11]; 48 h incubation) was less than 1000 nM and the GI50 ([12]; 48 h incubation) was 400 nM. The GI50 [13] was 1200 nM and the “Apoptosis (Annexin-V, FACS analysis)” value [14] was “Apoptosis was also established”.
With CC(C)=NNc1ncnc2c1ncn2C1O[C@H](CO)[C@@H](O)[C@H]1O (stereo partly drawn) [I-12, (2R,3S,4R)-2-(hydroxymethyl)-5-(6-(2-(propan-2-ylidene)hydrazinyl)-9H-purin-9-yl)tetrahydrofuran-3,4-diol] the GI50 (melanoma cell lines; Homo sapiens) was 1900 nM, the mean GI50 (MG-MID) ([1]; Homo sapiens) was 847 nM and the “cells found to be the most sensitive” value [1] was “prostate, ovarian, colon, and renal cancer cell lines”. For the same compound, the GI50 ([2]; Homo sapiens, K562, 48 h incubation) was 300 nM, the GI50 (renal cancer cell lines; Homo sapiens) was 516 nM and the GI50 (breast cancer cell lines; Homo sapiens) was 751 nM. The GI50 (HL60; Homo sapiens, HL-60, Vincristine (VCR) sensitive) was 1800 nM, the GI50 ([3]; Homo sapiens, MCF7, 48 h incubation) was 200 nM and the GI50 (colon cancer cell lines; Homo sapiens) was 497 nM. It also gave a GI50 ([4]; Homo sapiens) of 363 nM, a GI50 (leukemia cell lines; Homo sapiens) of 1270 nM and a GI50 ([5]; Homo sapiens) of 786 nM. The GI50 ([6]; Homo sapiens, HT-29, 48 h incubation) was 1600 nM, the GI50 (HL60-VCR [9]; HL60/VCR) was 2200 nM and the GI50 (CNS cancer cell lines; Homo sapiens) was 1200 nM. The GI50 ([10]; Homo sapiens) was 447 nM, the GI50 ([11]; Homo sapiens, HCT-15, 48 h incubation) was 2800 nM and the GI50 ([12]; Homo sapiens, Caco-2, 48 h incubation) was 200 nM. The GI50 ([13]; Homo sapiens, HeLa) was 600 nM.
In the case of COc1cccc2c1C(=O)c1c(O)c3c(c(O)c1C2=O)C[C@@](O)(C(=O)CO)C[C@@H]3O[C@H]1C[C@H](N)[C@H](O)[C@H](C)O1 [doxorubicine], the “resistance expressed by HL60-VCR” value (HL60-VCR [15]) is given as 8 fold and the “resistance expressed by KB-A1000” value (KB-A1000) is given as 97 fold.
In the case of CC[C@]1(O)C[C@@H]2CN(CCc3c([nH]c4ccccc34)[C@@](C(=O)OC)(c3cc4c(cc3OC)N(C)[C@H]3[C@@](O)(C(=O)OC)[C@H](OC(C)=O)[C@]5(CC)C=CCN6CC[C@]43[C@@H]65)C2)C1 [vinblastine], the “resistance expressed by HL60-VCR” value (HL60-VCR [15]) is given as 620 fold and the “resistance expressed by KB-A1000” value (KB-A1000) is given as 43 fold.
